Here are results for 44 molecules from the SangsterLogP compilation.

One may read the logP as the decadic logarithm of the partition coefficient of the neutral form, usually between octanol and water. A higher logP goes with higher lipophilicity.

Data set [1] in a line: method code SF-GLC, from DOI: 10.1584/jpestics.7.397.
Data set [2] can be described thus: method code G, from Wang, L.; Li, H.; Wang, X.; Zhang, Z. (1993). Determination of aqueous solubilities and partition coefficients of substitutive ethylketone congeners by generator column. Huanjing Huaxue, 12(2)151-154.
Experiment in data set [3]: not given
The source holds these as a separate data set.

Experiment in data set [4]: not given
The source holds these as a separate data set.

A short description of data set [5]: method code SF-AS, from DOI: 10.1081/jlc-100101656.
The conditions of data set [6]: pH 7.5.
Experiment in data set [7]: not given
This is another data set of the same source.

Data set [8] in a line: method code SF-AS, from Rainer, G.; Krüger, U.; Klemm, K. (1981). Synthesis and physico-chemical properties of lonazolac-Ca, a new antiphlogistic/antirheumatic agent. Arzneimittelforschung, 31(4)649-55.
Data set [9] in a line: method code SF-RC, from DOI: 10.1016/s0969-8051(03)00053-2. Conditions: pH 7.4.
Data set [10] is described as follows: method code RP-HPLC, from DOI: 10.1016/0043-1354(79)90252-5. Conditions: pH 7.0.
Experiment in data set [11]: not given
This is another data set of the same source.

Data set [12] is described as follows: method code SF-RC, from DOI: 10.1016/j.nucmedbio.2008.11.010, PMID: 19217534. Particulars: pH 7.4.
Data set [13] is described as follows: method code SF-AS, from DOI: 10.1016/j.ejps.2014.12.009, PMID: 25513709. Conditions: pH 7.4.
A short description of data set [14]: method code SF-HPLC, from DOI: 10.1021/jm100498u, PMID: 20704351. Conditions: pH 7.4.
Data set [15] in a line: method code SF-AS, from DOI: 10.1016/s0928-0987(01)00170-1, PMID: 11500262. Particulars: pH 12.5.
Data set [16] is described as follows: method code SF, from Li, Y.; Sun, S.; Zheng, Y. (2012). Determination of partition coefficients of icariside-II and icaritin based on the HPLC retention time. Chinese Pharmaceutical Journal, 47, 122-126.
Data set [17] in a line: method code SF-RC, from DOI: 10.17863/cam.48378, PMID: 23133799. Conditions: pH 7.4.
Data set [18] in a line: from Comini, L.; Núñez Montoya, S.; Argüello, G.; Cabrera, J. (2006). Partition coefficient (log P) determination of anthraquinone derivatives isolated from Heterophyllaea pustulata Hook, f. (Rubiaceae). …. Particulars: pH 7.4.
Experiment in data set [19]: not given
This is another data set of the same source.

Experiment in data set [20]: not given
This is another data set of the same source.

Experiment in data set [21]: not given
The source holds these as a separate data set.

Data set [22] is described as follows: method code SF-HPLC, from DOI: 10.1016/0378-5173(90)90303-l. Conditions: pH 7.4.
The nature of data set [23]: method code SF-AS, from DOI: 10.1021/jm9800301, PMID: 9748357. Particulars: pH 7.4.
Experiment in data set [24]: not given
This is another data set of the same source.

Data set [25] can be described thus: method code SF-RC, from PMID: 3380859. Particulars: pH 1.0.
The nature of data set [26]: method code SF-RC, from DOI: 10.1021/jm701375u, PMID: 18307287. Particulars: pH 7.4.
A short description of data set [27]: method code SF-AS, from DOI: 10.1248/cpb.42.1084, PMID: 8069960.
Experiment in data set [28]: not given
The source holds these as a separate data set.

Data set [29] can be described thus: method code SF, from DOI: 10.1016/j.ecoenv.2008.09.011, PMID: 19560203.
Data set [30] can be described thus: method code SF-HPLC, from DOI: 10.1016/0378-5173(85)90221-2. Particulars: pH 1.5.
The nature of data set [31]: method code SF-AS, from PMID: 12408720. Conditions: pH 7.4.
Data set [32] is described as follows: method code SF-AS, from DOI: 10.1016/s0006-291x(75)80410-4, PMID: 1111518.
Experiment in data set [33]: not given
The source holds these as a separate data set.

A short description of data set [34]: method code SF-HPLC, from DOI: 10.1016/j.ejmech.2009.03.025, PMID: 19386398. Conditions: pH 7.4.
A short description of data set [35]: method code SF-AS, from DOI: 10.1016/s0026-895x(25)10375-1.
Experiment in data set [36]: not given
This is another data set of the same source.

Experiment in data set [37]: not given
This is another data set of the same source.

For data set [38] the following is noted: pH 7.4.
Experiment in data set [39]: not given
The source holds these as a separate data set.

Data set [40] is described as follows: method code SF-AS, from DOI: 10.1002/jps.2600701116, PMID: 7299671. Conditions: pH 2.2.
Data set [41] in a line: method code SF-AS, from Falk, M.; Luecke, L. (1989). Transport of substances through lipid membranes. 11. Effect of esterification on the dissociation and permeation of orotic acid. Pharmazie, 44(9)647. Particulars: pH 1.2.
Data set [42] is described as follows: method code SF-AS, from PMID: 6540096. Particulars: pH 7.5.
Experiment in data set [43]: not given
The source holds these as a separate data set.

`CC(C)Oc1cccc(NC(=O)c2ccccc2C(F)(F)F)c1` had a log partition coefficient (logP) in data set [1] of 3.7. The molecule `COCCN1C=CC(=C2C(=O)c3ccc(Cl)cc3C2=O)C=C1` returned a logP of 2.78.

For the molecule `COc1ccc(C(=O)CSc2ccc(C)cc2)cc1`, in [2], the lipophilicity (logP) worked out at 2.47. Take `CC(CC(=O)O)(N=O)c1cc(Oc2ccc(C(F)(F)F)cc2Cl)ccc1[N+](=O)[O-]` (centres undefined): in data set [3], the logP stood at 4.3. `N#Cc1ccc(OCC2CCN(C/C=C/I)CC2)cc1` showed a lipophilicity (logP) in data set [4] of 3.36. In [5], `CCc1onc(C)c1NC1=CC(=O)C(=O)c2ccccc21` registered a logP of 2.14. In [6], `CCN1CCC[C@H]1CNC(=O)c1c(O)c(I)cc(OC)c1OC` gave a logD of 2.5.

`Oc1ccc2ccccc2c1/N=N/c1ccccc1` had a log partition coefficient (logP) in data set [7] of 5.86.

The molecule `O=C(O)Cc1cn(-c2ccccc2)nc1-c1ccc(Cl)cc1` gave a lipophilicity (logP) in [8] of 4.13. Molecule `CCCn1c(=O)c2[nH]c(C3CCCC3)nc2n(C/C=C/I)c1=O` returned a logD in data set [9] of 2.96. In the case of `COc1ccc(C(c2ccc(OC)cc2)C(Cl)(Cl)Cl)cc1`, the logD in data set [10] stood at 3.82. In data set [11], `Nc1cc2c3c(cccc3c1)-c1ccccc1-2` displayed a logP of 3.14. Consider `N#Cc1ccc(C(c2ccc(C#N)cc2)n2cncn2)cc1`, for which the logD in data set [12] turned out to be 1.84.

With `COC1=CC(=O)CC(C)C12Oc1c(Cl)c(OC)cc(OC)c1C2=O` (centres undefined), the logD in data set [13] was 2.33. As for `CCOC(=O)c1cncn1C(C)c1ccc(C2(C(F)(F)F)N=N2)cc1` (centres undefined), the logD in [14] was 4.4. Take `CN(C)CCCc1ccccc1-c1ccccc1`: the logD in [15] was 5.53.

Regarding `COc1ccc(-c2coc3cc(O)ccc3c2=O)cc1`, in data set [16], the logP was determined as 3.32. With `FCCOCCON=C1C=C(C#Cc2ccccn2)CCC1`, in data set [17], the logD was 1.9.

In [18], `COc1c(CO)c(O)cc2c1C(=O)c1ccccc1C2=O` showed a logD of 1.29. In the case of `Cc1ccc(CCNc2cc(-c3n[nH]c(N)n3)ccn2)cc1C`, the logP in data set [19] was 3.08. `C[C@]12N[C@H](Cc3ccccc31)c1ccccc12` gave a logP in data set [20] of 1.79.

As for `N#Cc1ccc(CN2CCC(COC/C=C/I)CC2)cc1`, the logP in [21] came out at 3.24. For `CN(C)C(=O)COC(=O)c1cc(S(N)(=O)=O)c(Cl)cc1NCc1ccco1`, the logD in data set [22] is 1.18.

Turning to `O=C(NCc1ccc(O)cc1)C(=O)c1c[nH]c2ccc([N+](=O)[O-])cc12`, in data set [23], the logD is 2.67. Turning to `c1cnc(N2CCN(Cc3ccc4c(c3)OCO4)CC2)nc1`, in data set [24], the logP was determined as 2.84.

On to `Cn1c(CCCC(=O)O)nc2cc(N(CCCl)CCCl)ccc21`, for which, in [25], the logD was determined as 0.44. `Brc1cccc(N2CCN(Cc3cnn4ccccc34)CC2)n1` yielded a logD in [26] of 1.98.

In data set [27], `COc1ccc(Nc2ccnc3cc(Cl)ccc23)cc1` showed a logP of 4.94. As to `COc1cccc(N(C)C(=N)Nc2cc(SC)ccc2Cl)c1`, the logP in [28] was 2.34.

As for `CCOC(=O)C1=C[C@@H](OC(CC)CC)[C@H](NC(C)=O)[C@@H](N)C1`, the logP in data set [29] turned out to be 1.21. `CCCc1c2c(c(O)c3c(=O)cc(C(=O)O)oc13)CCCC2`: the logD in data set [30] stood at 4.4. `Cc1ccc(C(=O)Cn2c3c(sc2=N)CCCC3)cc1` displayed a logD in [31] of 1.49.

With `C=CCN1CCN(C(=O)N=NC(=O)N2CCN(CC=C)CC2)CC1`, the logP in data set [32] was found to be 0.79. The molecule `O=[N+]([O-])c1cc(Cl)c(/N=N/c2ccc(N(CCO)CCO)cc2Cl)c(Cl)c1` showed a logP in data set [33] of 3.9. Take `Cc1ccc(N=NC(C)C(=O)NCCc2ccc(O)cc2)cc1` (centres undefined): the logD in data set [34] was 3.9. In the case of `CCN1CCC[C@H]1CNC(=O)c1c(OC)ccc(Br)c1OC`, the logP in [35] was 2.1. In the case of `CCCn1c(=O)c2[nH]c(-c3ccc(S(=O)(=O)O)cc3)nc2n(CCC)c1=O`, in data set [36], the logP was -0.03. In turn, `CCCCC(CC)CP(=O)(O)CC(CC)CCCC` (centres undefined) registered a logP in data set [37] of 3.92.

As to `O=C(Nc1ccnc(NC(=O)C2CC2)c1)c1c(Cl)cccc1Cl`, in data set [38], the logD is 3.4. With `c1cc(-c2cnc3c(-c4ccncc4)cnn3c2)ccn1`, in data set [39], the logP came to 2.5. `C=C(CC(=O)c1ccc(-c2ccccc2Cl)cc1)C(=O)O` registered a logD in [40] of 3.32. Consider `CCCCCCCCCCOC(=O)c1cc(=O)[nH]c(=O)[nH]1`, for which, in data set [41], the logD amounted to 2.85.

As for `CCc1cc2c(s1)N(C)C(=O)CN=C2c1ccccc1Cl`, in data set [42], the logD is 3.35. On to `O=C(O)CCC(=O)c1ccc(-c2ccccc2)cc1`, for which, in data set [43], the logP was 2.91.
